Measured values from patent US10173999B2, “Cyclic amine derivative and pharmaceutical use thereof” (Toray Industries, Inc., priority 2015, dated 2019).
Counter-ions that a name gives are not always drawn.

How the values were obtained:
[1] = test system: mouse partial sciatic nerve ligation model (neuropathic pain); assay: Mouse partial sciatic nerve ligation model (Seltzer model), von Frey test; assay type: in vivo; conditions: for persistence of analgesic action / time of strongest analgesic action after oral administration: oral administration, von Frey test at 1, 2, 3 h
Description: The mouse partial sciatic nerve ligation model was prepared in accordance with the method of Seltzer et al. (Malmberg et al., Pain, vol. 76, p. 215-222, 1998).
Slc: ICR mice (5 weeks old, male; from Japan SLC, Inc.) or Cr1: CD1 (ICR) mice (5 weeks old, male; from CHARLES RIVER LABORATORIES JAPAN, INC.) were anesthetized with sodium pentobarbital (70 mg/kg, intraperitoneal administration). The sciatic nerve at the femoral region of the right hind paw of each mouse was exposed and triply ligated tightly with silk suture of 8-0 (from NATSUME SEISAKUSHO CO., LTD.) under a stereomicroscope so that only half thickness of the nerve was trapped in the ligature. A group of mice thus treated was designated as a partial sciatic nerve ligation group. A group of mice whose sciatic nerve was just exposed and not ligated was designated as a sham surgery group.
Evaluation of neuropathic pain (hereinafter referred to as von Frey test) was performed as follows. Mice were conditioned for at least one hour in an acrylic cage for measurement (from NATSUME SEISAKUSHO CO. LTD. or SHINANO SEISAKUSHO) placed on a wire net. Thereafter, using a filament (from North Coast Medical or neuroscience) which exerted a pressure of 0.16 g, the mice were subjected to mechanical tactile stimulus by applying the filament to the plantar surface of the right hind paw 3 times, each for 3 seconds, with an interval of 3 seconds.
Seven days after the sciatic nerve ligation surgery, the compound of Example 1, 2, 3, 4, 5, 7, 8, 9, 10, 11, 12 or 13 (10 mg/kg for each of the compounds of Example 1, 2, 3, 4, 5, 8, 10 and 13, 0.01 to 1 mg/kg for the compound of Example 7, 0.01 to 10 mg/kg for the compound of Example 9; 0.001 to 0.1 mg/kg for the compound of Example 11; and 0.01 to 1 mg/kg for the compound of Example 12) or pregabalin as a positive control (10 mg/kg; Bosche Scientific) was dissolved in distilled water and orally administered to mice of the partial sciatic nerve ligation group. The groups of the mice in the partial sciatic nerve ligation mouse to which the compound of Example 1, 2, 3, 4, 5, 7, 8, 9, 10, 11, 12 or 13 was administered were designated as a “partial sciatic nerve ligation+the compound of Example 1” group; a “partial sciatic nerve ligation+the compound of Example 2” group; a “partial sciatic nerve ligation+the compound of Example 3” group; a “partial sciatic nerve ligation+the compound of Example 4” group; a “partial sciatic nerve ligation+the compound of Example 5” group; a “partial sciatic nerve ligation+the compound of Example 7” group; a “partial sciatic nerve ligation+the compound of Example 8” group; a “partial sciatic nerve ligation+the compound of Example 9” group; a “partial sciatic nerve ligation+the compound of Example 10” group; a “partial sciatic nerve ligation+the compound of Example 11” group; a “partial sciatic nerve ligation+the compound of Example 12” group; and a “partial sciatic nerve ligation+the compound of Example 13” group, respectively. The partial sciatic nerve ligation mouse group to which pregabalin was administered was designated as a “partial sciatic nerve ligation+pregabalin” group. A group wherein distilled water was orally administered to the mice of the partial sciatic nerve ligation group was designated as a “partial sciatic nerve ligation+distilled water” group. A group wherein distilled water was orally administered to the mice of the sham surgery group was designated as a “sham surgery+distilled water” group.
The von Frey test was carried out before oral administration of a test compound (pre-value), one hour, two hours, and three hours after the oral administration of a test compound.
Slc: ICR mice (5 weeks old, male; Japan SLC, Inc.) were anesthetized with sodium pentobarbital (70 mg/kg, intraperitoneal administration).

[2] = test system: Canine aortic smooth muscle cells; assay: Inducibility of cytoplasmic vacuolation in canine aortic smooth muscle cells; assay type: cell-based; design: key: Present: The term “present” in the tables means that cytoplasmic vacuolation was observed; Absent: the term “absent” means that cytoplasmic vacuolation was not observed; conditions: Concentration: 1.0 mmol/L, Treatment time: 24 hours
Description: (§1) As a test compound, the compound of Example 3, 9, 11, 12 or compounds of Comparative Examples 2 to 6 were used. Canine aortic smooth muscle cells (Canine Aortic Smooth Muscle Cells, supply source: Toyobo Co., Ltd.) or human aortic smooth muscle cells of (T/G HA-VSMG, supply source: ATCC) were treated with a test compound (1.0 or 1.2 mmol/L in concentration) for 24 hours or 2 weeks. The cells were stained with HE, immunohistochemically for LAMP-2 or toluidine blue, and thereafter the presence or absence of cytoplasmic vacuolation was determined by using an optical microscope.

[3] = test system: mouse partial sciatic nerve ligation model (neuropathic pain); assay: Mouse partial sciatic nerve ligation model (Seltzer model), von Frey test; assay type: in vivo; conditions: Comparative Example 7: oral, 7 days after ligation, 1-3 h after dosing; 0.01-1 mg/kg (Comp Ex 1), 10 mg/kg (Comp Ex 3-6, pregabalin); vs ligation+distilled water; t-test corrected by Dunnett
[4] = test system: human aortic smooth muscle cells (T/G HA-VSMG); assay: Inducibility of cytoplasmic vacuolation in human aortic smooth muscle cells; assay type: cell-based; conditions: Treatment time: 24 hours
Description: as §1

[5] = test system: fibromyalgia syndrome model rats; assay: Rat fibromyalgia syndrome model (acidic saline), allodynia by von Frey filament; assay type: in vivo; conditions: Day 7, pregabalin 10 mg/kg
Description: To prepare a fibromyalgia syndrome model rat (Sluka et al., Journal of Pharmacology and Experimental Therapeutics, vol. 302, p. 1146-1150, 2002; Nagakura et al., Pain, vol. 146, p. 26-33, 2009; Sluka et al., Pain, vol. 146, p. 3-4, 2009), which is generally employed widely in basic research for fibromyalgia syndrome, acidic saline (100 μL) adjusted to pH 4.0 was intramuscularly injected to the gastrocnemius muscle of the right hind paw of Crl: CD(SD) rat (6 to 7 weeks old, male; from CHARLES RIVER LABORATORIES JAPAN, INC.) under continuous inhalation anesthesia with isoflurane, twice (once in each day of Day 1 and Day 6, wherein Day 1 was the date on which the acidic saline was initially administrated). The rats thus prepared were raised in a breeding room controlled at an indoor temperature of 21 to 25° C. and an indoor humidity of 40 to 70% under the conditions of voluntary intake of food and water. In the same manner, rats to which physiological saline in place of acidic saline was intramuscularly injected were raised. The rats thus raised and not afflicted with fibromyalgia syndrome (“physiological saline+distilled water” group in FIG. 13) were also used in the experiment.
Seven days after the initial administration of acidic saline, allodynia in each rat was measured. […] Note that, measurement of allodynia was performed by use of a von Frey filament (from North Coast Medical) in accordance with the method described in a known literature (Chaplan et al., Journal of Neuroscience Methods, vol. 53, p. 55-63, 1994).
The fibromyalgia syndrome model rats thus obtained are divided into groups such that the 50% response threshold (mean value of the right hind paw and the left hind paw) of the individual groups became equal, and a test compound was administered to the fibromyalgia syndrome model rats on Day 7 after the initial administration of acidic saline.
The compound of Example 11 (0.1 to 10 mg/kg) was dissolved in distilled water and then orally administered to fibromyalgia syndrome model rats (“acidic saline+the compound of Example 11” in FIG. 13). Pregabalin serving as a positive control (10 mg/kg; from KEMPROTEC) was dissolved in distilled water and then orally administered (“acidic saline+pregabalin” in FIG. 13). As a control, distilled water was orally administered to fibromyalgia syndrome model rats (“acidic saline+distilled water” in FIG. 13). Furthermore, distilled water was orally administered to rats not afflicted with fibromyalgia syndrome (“physiological saline+distilled water” in FIG. 13). One hour and three hours after the oral administration, allodynia in individual rats was measured to evaluate an analgesic action. At this time, the 50% response threshold value in the measurement of allodynia before oral administration of the test compound on Day 7 after initial administration of acidic saline was defined as the pre-value.
To prepare a fibromyalgia syndrome model rat (Sluka et al., Journal of Pharmacology and Experimental Therapeutics, vol. 302, p. 1146-50, 2002; Nagakura et al., Pain, vol. 146, p. 26-33, 2009; Sluka et al., Pain, vol. 146, p. 3-4, 2009), which is generally employed widely in basic research for fibromyalgia syndrome, acidic saline (100 μL) adjusted to pH 4.0 was intramuscularly injected to the gastrocnemius muscle of the right hind paw of Slc: (SD) rats (6 to 7 weeks old, male; from Japan SLC, Inc.) under continuous inhalation anesthesia with isoflurane, twice (once in each of Day 1 and Day 6, wherein Day 1 was the initial administration date of the acidic saline). The rats thus prepared were raised in a breeding room controlled at an indoor temperature of 21 to 25° C. and an indoor humidity of 40 to 70% under the conditions of voluntary intake of food and water. In the same manner, rats to which physiological saline was intramuscularly injected in place of acidic saline were raised. […]

[6] = oral, 7 days after ligation, 1-3 h after dosing, 10 mg/kg (Ex 1,2,3,4,5,8,10,13, pregabalin), 0.01-1 mg/kg (Ex 7,12), 0.01-10 mg/kg (Ex 9), 0.001-0.1 mg/kg (Ex 11), vs ligation+distilled water, Welch or Shirley-Williams test

| Compound | persistence of analgesic action [1] | time of strongest analgesic action after oral administration [1] | Inducibility of cytoplasmic vacuolation [2] | analgesic action in von Frey test (total score) [3] | analgesic action in von Frey test (total score) [1, 6] | also measured |
| --- | --- | --- | --- | --- | --- | --- |
| CCn1ccnc1CCC(=O)N1CCC(N(C)C)CC1 [Comparative Example 3, 1-(4-(dimethylamino)piperidin-1-yl)-3-(1-ethyl-1H-imidazol-2-yl)propan-1-one hydrochloride] | tended to decrease 2 hours and 3 hours later | one | Present | statistically significant analgesic action | – | – |
| CCCn1ccnc1CCC(=O)N1CCC(N(C)C)CC1 [Comparative Example 4, 1-(4-(dimethylamino)piperidin-1-yl)-3-(1-propyl-1H-imidazol-2-yl)propan-1-one hydrochloride] | tended to decrease 2 hours and 3 hours later | one | Present | statistically significant analgesic action | – | – |
| CCCCn1ccnc1CCC(=O)N1CCC(N(C)C)CC1 [Comparative Example 5, 1-(4-(dimethylamino)piperidin-1-yl)-3-(1-butyl-1H-imidazol-2-yl)propan-1-one hydrochloride] | tended to decrease 2 hours and 3 hours later | one | Present | statistically significant analgesic action | – | – |
| CN1CCN(C2CCN(C(=O)CC(O)c3nccn3C)CC2)CC1 (centres unmarked) [Example 3, 3-hydroxy-3-(1-methyl-1H-imidazol-2-yl)-1-(4-(4-methylpiperazin-1-yl)piperidin-1-yl)propan-1-one] | – | – | – | – | statistically significant analgesic action | Inducibility of cytoplasmic vacuolation ([4]; Concentration: 1.2 mmol/L): Absent |
| CN(C)C1CCN(C(=O)CC(O)c2nccn2CC(F)(F)F)CC1 (centres unmarked) [Example 9, 1-(4-(dimethylamino)piperidin-1-yl)-3-hydroxy-3-(1-(2,2,2-trifluoroethyl)-1H-imidazol-2-yl)propan-1-one] | persistence of analgesic action was confirmed | – | – | – | statistically significant analgesic action | Inducibility of cytoplasmic vacuolation ([4]; Concentration: 1.2 mmol/L): Absent |
| CC(=O)OC(CC(=O)N1CCC(N(C)C)CC1)c1nccn1C (centres unmarked) [Example 12, 3-(4-(dimethylamino)piperidin-1-yl)-1-(1-methyl-1H-imidazol-2-yl)-3-oxopropyl acetate] | persistence of analgesic action was confirmed | – | – | – | statistically significant analgesic action | Inducibility of cytoplasmic vacuolation ([4]; Concentration: 1.0 mmol/L): Absent |
| CC(C)C[C@H](CN)CC(=O)O [pregabalin] | – | – | – | – | – | allodynia (50% response threshold) vs acidic saline+distilled water group ([5]; Comparative Example 8: oral, Comparative Example 1 0.1 to 1 mg/kg, 1, 2 and 3 h after dosing): statistically significantly improved; allodynia (50% response threshold) vs acidic saline+distilled water group ([5]; Example 15: oral, Example 11 0.1 to 10 mg/kg, 1 and 3 h after dosing): statistically significantly improved; analgesic action in von Frey test (total score) ([1]; mouse, in vivo): statistically significant analgesic action |
